Measurements published in patent publication US8273890B2 (4SC AG, priority 2007, dated 2012).

Target: T1, recombinant Plk1 protein (Homo sapiens, UniProt P53350)
T1 construct: histidine tag (N); made in house; host or cells: SF9 insect cells
Assay: Plk1 kinase activity inhibition assay (33P-ATP, alpha casein substrate, flash plates)
Assay type: biochemical
Conditions: enzymatic assay, 100 nM Li-ATP, 80 minutes at 30° C.
Procedure, shortened: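 N-terminally His-tagged human Plk1 from SF9 cells (50–100 ng/well) phosphorylated alpha casein (500 ng/well) with 100 nM ATP including 33P-ATP at pH 7.5, with Mg2+ and Mn2+, 80 min at 30 °C. 33P incorporation read on scintillator-coated flash plates; IC50 derived.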

T1 sequence (P53350 whole entry): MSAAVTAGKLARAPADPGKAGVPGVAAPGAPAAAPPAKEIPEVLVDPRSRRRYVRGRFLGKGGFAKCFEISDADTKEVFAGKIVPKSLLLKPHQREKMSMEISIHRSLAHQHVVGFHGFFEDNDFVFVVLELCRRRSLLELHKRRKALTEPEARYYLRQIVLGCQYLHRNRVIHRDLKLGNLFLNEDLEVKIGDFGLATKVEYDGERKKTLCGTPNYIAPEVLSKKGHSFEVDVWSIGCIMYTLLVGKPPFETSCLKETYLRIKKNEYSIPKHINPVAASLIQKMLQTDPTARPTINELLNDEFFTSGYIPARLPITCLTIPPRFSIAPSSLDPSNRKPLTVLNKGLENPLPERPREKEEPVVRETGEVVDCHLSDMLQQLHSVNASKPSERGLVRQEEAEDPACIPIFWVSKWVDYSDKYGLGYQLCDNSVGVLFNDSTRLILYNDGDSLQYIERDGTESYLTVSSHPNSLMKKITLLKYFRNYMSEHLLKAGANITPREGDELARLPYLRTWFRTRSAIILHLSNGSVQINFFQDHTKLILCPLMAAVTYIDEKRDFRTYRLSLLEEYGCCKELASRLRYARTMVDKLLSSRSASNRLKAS

IC50 [nM]	SMILES
10 to 100	C[C@@H](Oc1cc(-n2cnc3cnc(CN4CCN(c5cnccn5)CC4)cc32)sc1C(N)=O)c1ccccc1C(F)(F)F [Example 84, 5-{6-[(4-pyrazin-2-ylpiperazin-1-yl)methyl]-1H-imidazo[4,5-c]pyridin-1-yl}-3-{(1R)-1-[2-(trifluoromethyl)phenyl]ethoxy}thiophene-2-carboxamide]
< 10	C[C@@H](Oc1cc(-n2cnc3cnc(CN4CCN(C)CC4)cc32)sc1C(N)=O)c1ccccc1F [Example 101, 3-[(1R)-1-(2-fluorophenyl)ethoxy]-5-{6-[(4-methylpiperazin-1-yl)methyl]-1H-imidazo[4,5-c]pyridin-1-yl}thiophene-2-carboxamide]
< 10	C[C@@H](Oc1cc(-n2cnc3cnc(CN4CCCN(C)CC4)cc32)sc1C(N)=O)c1ccccc1C(F)(F)F [Example 164, 5-{6-[(4-methyl-1,4-diazepan-1-yl)methyl]-1H-imidazo[4,5-c]pyridin-1-yl}-3-{(1R)-1-[2-(trifluoromethyl)phenyl]ethoxy}thiophene-2-carboxamide]
10 to 100	CC(Oc1cc(-n2cnc3cnc(CN4CCN(C)CC4)cc32)sc1C(N)=O)c1ccccc1F (stereo not shown) [Example 103, 3-[1-(2-fluorophenyl)ethoxy]-5-{6-[(4-methylpiperazin-1-yl)methyl]-1H-imidazo[4,5-c]pyridin-1-yl}thiophene-2-carboxamide]
10 to 100	CCc1ccccc1COc1cc(-n2cnc3cnc(CO)cc32)sc1C(N)=O [Example 162, 3-[(2-ethylbenzyl)oxy]-5-[6-(hydroxymethyl)-1H-imidazo[4,5-c]pyridin-1-yl]thiophene-2-carboxamide]
10 to 100	NC(=O)c1sc(-n2cnc3cnccc32)cc1OCc1cccc(C(F)(F)F)c1 [Example 35, 5-(1H-imidazo[4,5-c]pyridin-1-yl)-3-{[3-(trifluoromethyl)benzyl]oxy}thiophene-2-carboxamide]
10 to 100	CC(Oc1cc(-n2cnc3cnccc32)sc1C(N)=O)c1ccccc1Cl (stereo not shown) [Example 15, 3-[1-(2-Chlorophenyl)ethoxy]-5-(1H-imidazo[4,5-c]pyridin-1-yl)thio-phene-2-carboxamide]
100 to 1000	C[C@H](Oc1cc(-n2cnc3cnc(CO)cc32)sc1C(N)=O)c1ccccc1C(F)(F)F [Example 46, 5-[6-(hydroxymethyl)-1H-imidazo[4,5-c]pyridin-1-yl]-3-{(1S)-1-[2-(trifluoromethyl)phenyl]ethoxy}thiophene-2-carboxamide]
10 to 100	CCC(Oc1cc(-n2cnc3cnc(CN4CCN(c5ccncc5)CC4)cc32)sc1C(N)=O)c1ccccc1Cl (stereo not shown) [Example 143, 3-{[1-(2-chlorophenyl)propyl]oxy}-5-{6-[(4-pyridin-4-ylpiperazin-1-yl)methyl]-1H-imidazo[4,5-c]pyridin-1-yl}thiophene-2-carboxamide]
10 to 100	C[C@@H](Oc1cc(-n2cnc3cnc(CNCCN4CCOCC4)cc32)sc1C(N)=O)c1ccccc1C(F)(F)F [Example 147, 5-(6-{[(2-morpholin-4-ylethyl)amino]methyl}-1H-imidazo[4,5-c]pyridin-1-yl)-3-{(1R)-1-[2-(trifluoromethyl)phenyl]ethoxy}thiophene-2-carboxamide]
10 to 100	NC(=O)c1sc(-n2cnc3cnc(CO)cc32)cc1OCc1ccccc1C(F)(F)F [Example 9, 5-[6-(Hydroxymethyl)-1H-imidazo[4,5-c]pyridin-1-yl]-3-{[2-(trifluoromethyl)benzyl]oxy}thiophene-2-carboxamide]
10 to 100	NC(=O)c1sc(-n2cnc3ccncc32)cc1OCc1c(Cl)cccc1Cl [Example 43, 3-[(2,6-dichlorobenzyl)oxy]-5-(3H-imidazo[4,5-c]pyridin-3-yl)thiophene-2-carboxamide]
10 to 100	CC(Oc1cc(-n2cnc3cnccc32)sc1C(N)=O)c1ccccc1C(F)(F)F (stereo not shown) [Example 14, 5-(1H-Imidazo[4,5-c]pyridin-1-yl)-3-{1-[2-(trifluoromethyl)phenyl]ethoxy}thiophene-2-carboxamide]
< 10	C[C@@H](Oc1cc(-n2cnc3cnc(CN4CCN(C(=O)N(C)C)CC4)cc32)sc1C(N)=O)c1ccccc1Br [Example 133]
< 10	Cc1ccccc1C(C)Oc1cc(-n2cnc3cnc(CO)cc32)sc1C(N)=O (stereo not shown) [Example 110, 5-[6-(hydroxymethyl)-1H-imidazo[4,5-c]pyridin-1-yl]-3-[1-(2-methylphenyl)ethoxy]thiophene-2-carboxamide]
100 to 1000	NC(=O)c1sc(-n2cnc3ccncc32)cc1OCc1cccc(C(F)(F)F)c1 [Example 30, 5-(3H-imidazo[4,5-c]pyridin-3-yl)-3-{[3-(trifluoromethyl)benzyl]oxy}thiophene-2-carboxamide]

IC50 [nM]	SMILES
1000 to 10000	C[C@@H](Oc1cc(-n2cnc3cc(CN4CCN(C)CC4)ncc32)sc1C(N)=O)c1ccccc1C(F)(F)F [Example 49, 5-{6-[(4-methylpiperazin-1-yl)methyl]-3H-imidazo[4,5-c]pyridin-3-yl}-3-{(1R)-1-[2-(trifluoromethyl)phenyl]ethoxy}thiophene-2-carboxamide]
< 10	C[C@@H](Oc1cc(-n2cnc3cnc(CN4CCN(C(N)=O)CC4)cc32)sc1C(N)=O)c1ccccc1C(F)(F)F [Example 67, 4-{[1-(5-carbamoyl-4-{(1R)-1-[2-(trifluoromethyl)phenyl]ethoxy}-2-thienyl)-1H-imidazo[4,5-c]pyridin-6-yl]methyl}piperazine-1-carboxamide]
10 to 100	C[C@@H](Oc1cc(-n2cnc3cc(CNS(C)(=O)=O)ncc32)sc1C(N)=O)c1ccccc1C(F)(F)F [Example 90, 5-(6-{[(methylsulfonyl)amino]methyl}-3H-imidazo[4,5-c]pyridin-3-yl)-3-{(1R)-1-[2-(trifluoromethyl)phenyl]ethoxy}thiophene-2-carboxamide]
10 to 100	C[C@@H](Oc1cc(-n2cnc3cnc(CN4CCN(C5CCCCC5)CC4)cc32)sc1C(N)=O)c1ccccc1C(F)(F)F [Example 106, 5-{6-[(4-cyclohexylpiperazin-1-yl)methyl]-1H-imidazo[4,5-c]pyridin-1-yl}-3-{(1R)-1-[2-(trifluoromethyl)phenyl]ethoxy}thiophene-2-carboxamide]
10 to 100	CNCc1cc2ncn(-c3cc(O[C@H](C)c4ccccc4C(F)(F)F)c(C(N)=O)s3)c2cn1 [Example 116, 5-{6-[(methylamino)methyl]3H-imidazo[4,5-c]pyridin-3-yl}-3-{(1R)-1-[2-(trifluoromethyl)phenyl]ethoxy}thiophene-2-carboxamide]
100 to 1000	CCC(Oc1cc(-n2cnc3cnc(CN4CCN(CCN(C)C)CC4)cc32)sc1C(N)=O)c1ccccc1Cl (stereo not shown) [Example 151, 3-{[1-(2-chlorophenyl)propyl]oxy}-5-[6-({4-[2-(dimethylamino)ethyl]piperazin-1-yl}methyl)-1H-imidazo[4,5-c]pyridin-1-yl]thiophene-2-carboxamide]
< 10	C[C@@H](Oc1cc(-n2cnc3cnc(CN4CC(O)C4)cc32)sc1C(N)=O)c1ccccc1C(F)(F)F [Example 96, 5-{6-[(3-hydroxyazetidin-1-yl)methyl]-1H-imidazo[4,5-c]pyridin-1-yl}-3-{(1R)-1-[2-(trifluoromethyl)phenyl]ethoxy}thiophene-2-carboxamide]
< 10	CC(Oc1cc(-n2cnc3cnc(CO)cc32)sc1C(N)=O)c1ccccc1C(F)(F)F (stereo not shown) [Example 44, 5-[6-(hydroxymethyl)-1H-imidazo[4,5-c]pyridin-1-yl]-3-{1-[2-(trifluoromethyl)phenyl]ethoxy}thiophene-2-carboxamide]
10 to 100	C[C@@H](Oc1cc(-n2cnc3cnc(CN4CCC(C(=O)N5CCN(C)CC5)CC4)cc32)sc1C(N)=O)c1ccccc1C(F)(F)F [Example 91, 5-[6-({4-[(4-methylpiperazin-1-yl)carbonyl]piperidin-1-yl}methyl)-1H-imidazo[4,5-c]pyridin-1-yl]-3-{(1R)-1-[2-(trifluoromethyl)phenyl]ethoxy}thiophene-2-carboxamide]
< 10	CCN1CCN(Cc2cc3c(cn2)ncn3-c2cc(O[C@H](C)c3ccccc3C(F)(F)F)c(C(N)=O)s2)CC1 [Example 107, 5-{6-[(4-ethylpiperazin-1-yl)methyl]-1H-imidazo[4,5-c]pyridin-1-yl}-3-{(1R)-1-[2-(trifluoromethyl)phenyl]ethoxy}thiophene-2-carboxamide]
10 to 100	N#Cc1ccccc1COc1cc(-n2cnc3cnccc32)sc1C(N)=O [Example 39, 3-[(2-cyanobenzyl)oxy]-5-(1H-imidazo[4,5-c]pyridin-1-yl)thiophene-2-carboxamide]
< 10	C[C@@H](Oc1cc(-n2cnc3cnc(CN4CCN(C(=O)N(C)C)CC4)cc32)sc1C(N)=O)c1ccccc1Cl [Example 128, 4-[(1-{5-carbamoyl-4-[(1R)-1-(2-chlorophenyl)ethoxy]-2-thienyl}-1H-imidazo[4,5-c]pyridin-6-yl)methyl]-N,N-dimethylpiperazine-1-carboxamide]
100 to 1000	C[C@@H](Oc1cc(-n2cnc3cnc(CN4CCN(CC5CCN(C)CC5)CC4)cc32)sc1C(N)=O)c1ccccc1C(F)(F)F [Example 85, 5-[6-({4-[(1-methylpiperidin-4-yl)methyl]piperazin-1-yl}methyl)-1H-imidazo[4,5-c]pyridin-1-yl]-3-{(1R)-1-[2-(trifluoromethyl)phenyl]ethoxy}thiophene-2-carboxamide]
10 to 100	COc1cc2ncn(-c3cc(OCc4ccccc4C(F)(F)F)c(C(N)=O)s3)c2cn1 [Example 17, 5-(6-Methoxy-3H-imidazo[4,5-c]pyridin-3-yl)-3-{[2-(trifluoromethyl)benzyl]oxy}thiophene-2-carboxamide]
< 10	C[C@@H](Oc1cc(-n2cnc3cnc(CN4CCN(C)CC4)cc32)sc1C(N)=O)c1ccccc1Br [Example 98, 3-[(1R)-1-(2-bromophenyl)ethoxy]-5-{6-[(4-methylpiperazin-1-yl)methyl]-1H-imidazo[4,5-c]pyridin-1-yl}thiophene-2-carboxamide]
